Source: US10723741B1, “DNA polymerase IIIC inhibitors and use thereof” (Acurx Pharmaceuticals, LLC, priority 2018, dated 2020)
≈ marks a conversion by molar mass, not a printed value. Structures can show the parent of a compound that is named as a salt. Where two headings read alike, the source gives them in different places.

How the values were obtained:
Format in all cases: cell-based
[1] = tested on: Staphylococcus aureus NRS384 (MRSA); experiment: Broth microdilution MIC, S. aureus NRS384 (MRSA); parameters: MIC NRS 384 (MRSA): unit not given here; details: broth microdilution, 37° C., 20 hours; for MIC: Staphylococcus aureus, read-out: MIC NRS 384 (MRSA)
How it was run: (§1)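 Broth microdilution in strain-specific test medium with ~5.0×10^5 cfu/ml inoculum, 1% DMSO and two-fold compound dilutions from 64 to 0.0625 μg/ml. Plates were held 20 hours at 37° C in ambient air. S. pneumoniae colonies were grown beforehand on blood agar in 5% CO2.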

[2] = tested on: Staphylococcus aureus ATCC 29213 (MSSA); experiment: Broth microdilution MIC, S. aureus ATCC 29213 (MSSA); details: read-out: MIC S. aureus ATCC 29213 (MSSA)
How it was run: as §1

[3] = tested on: Enterococcus faecalis ATCC 29212; experiment: Broth microdilution MIC, E. faecalis ATCC 29212; details: read-out: MIC E. faecalis ATCC 29212
How it was run: as §1

[4] = tested on: Enterococcus faecium ATCC 700221 (VRE); experiment: Broth microdilution MIC, E. faecium ATCC 700221 (VRE); parameters: MIC E. faecium ATCC 700221 (VRE): unit: ug/mL; details: broth microdilution, 37° C., 20 hours; for MIC: Enterococcus faecium, read-out: MIC E. faecium ATCC 700221 (VRE)
How it was run: as §1

[5] = tested on: Streptococcus pneumoniae ATCC 49619; experiment: Broth microdilution MIC, S. pneumoniae ATCC 49619; details: read-out: MIC S. pneumoniae ATCC 49619
How it was run: as §1

[6] = tested on: Bacillus subtilis ATCC 6633; experiment: Broth microdilution MIC, B. subtilis ATCC 6633; details: read-out: MIC B. subtilis ATCC 6633
How it was run: as §1

[7] = tested on: Escherichia coli ATCC 25922; experiment: Broth microdilution MIC, E. coli ATCC 25922 (MHIIB w & w/o 4 mM EDTA); details: for MIC: Escherichia coli, read-out: MIC E. coli ATCC 25922; for MIC E. coli ATCC 25922 + 4 mM EDTA: with 4 mM EDTA
How it was run: as §1

[8] = broth microdilution, 37° C., 20 hours
[9] = ATCC29212, broth microdilution, 37° C., 20 hours
[10] = ATCC49619, broth microdilution, 37° C., 20 hours
[11] = ATCC6633, broth microdilution, 37° C., 20 hours
[12] = ATCC25922, without EDTA, broth microdilution, 37° C., 20 hours

Row | Structure (SMILES) | MIC [1] | MIC [2, 8] | MIC [3, 9] | MIC [4] | MIC [5, 10] | MIC [6, 11] | MIC [7, 12] | MIC E. coli ATCC 25922 + 4 mM EDTA [7, 8] | MIC NRS 384 (MRSA) [1] | MIC ([2]; 20 h) | MIC ([3]; ATCC29212, 20 h) | MIC E. faecium ATCC 700221 (VRE) [4] | MIC ([5]; ATCC49619, 20 h) | MIC ([6]; ATCC6633, 20 h) | MIC ([7]; ATCC25922, 20 h)
1 | Cl.O=C(O)C1CC(n2ncc3nc(NCc4ccc(Cl)c(Cl)c4)[nH]c(=O)c32)CN1C(=O)c1ccncc1 (stereo not drawn) [Compound 150, 4-(5-((3,4-dichlorobenzyl)amino)-7-oxo-6,7-dihydro-1H-pyrazolo[4,3-d]pyrimidin-1-yl)-1-isonicotinoylpyrrolidine-2-carboxylic acid hydrochloride] | > 64 µg/mL | > 64 µg/mL | > 64 µg/mL | > 64 µg/mL | > 64 µg/mL | > 64 µg/mL | > 64 µg/mL | >64 µg/mL |  |  |  |  |  |  | 
2 | Cl.O=C(O)C1CC(n2ncc3nc(NCc4ccc(Cl)c(Cl)c4)[nH]c(=O)c32)CN1 (stereo not drawn) [Compound 151, 4-(5-((3,4-dichlorobenzyl)amino)-7-oxo-6,7-dihydro-1H-pyrazolo[4,3-d]pyrimidin-1-yl)pyrrolidine-2-carboxylic acid hydrochloride] | > 64 µg/mL | > 64 µg/mL | > 64 µg/mL | > 64 µg/mL | 64 µg/mL | > 64 µg/mL | > 64 µg/mL | >64 µg/mL |  |  |  |  |  |  | 
3 | O=c1[nH]c(NCc2ccc(Cl)c(Cl)c2)nc2cnn(C3CCNCC3)c12 [Compound 152, 5-((3,4-dichlorobenzyl)amino)-1-(piperidin-4-yl)-1H-pyrazolo[4,3-d]pyrimidin-7(6H)-one] | 16 µg/mL (≈ 40.7 µM) | 16 µg/mL (≈ 40.7 µM) | 16 µg/mL (≈ 40.7 µM) | 8 µg/mL (≈ 20.3 µM) | 2 µg/mL (≈ 5.09 µM) | 4 µg/mL (≈ 10.2 µM) | > 64 µg/mL | 32 µg/mL |  |  |  |  |  |  | 
4 | CC(C)(C)OC(=O)N1CCC(n2ncc3nc(NCc4ccc(Cl)c(Cl)c4)[nH]c(=O)c32)CC1 [Compound 153, Tert-butyl 4-(5-((3,4-dichlorobenzyl)amino)-7-oxo-6,7-dihydro-1H-pyrazolo[4,3-d]pyrimidin-1-yl)piperidine-1-carboxylate] | 4 µg/mL (≈ 8.11 µM) | 8 µg/mL (≈ 16.2 µM) | 4 µg/mL (≈ 8.11 µM) | 2 µg/mL (≈ 4.05 µM) | 16 µg/mL (≈ 32.4 µM) | 2 µg/mL (≈ 4.05 µM) | > 64 µg/mL |  |  |  |  |  |  |  | 
5 | Cl.O=c1[nH]c(NCc2ccc(Cl)c(Cl)c2)nc2cnn(CC3CCCNC3)c12 (stereo not drawn) [Compound 154, 5-((3,4-dichlorobenzyl)amino)-1-(piperidin-3-ylmethyl)-1H-pyrazolo[4,3-d]pyrimidin-7(6H)-one hydrochloride] | 32 µg/mL | 32 µg/mL | 32 µg/mL | 32 µg/mL | 4 µg/mL | 8 µg/mL | > 64 µg/mL | 32 µg/mL |  |  |  |  |  |  | 
6 | Cl.O=c1[nH]c(NCc2ccc(Cl)c(Cl)c2)nc2cnn(CC3CCNC3)c12 (stereo not drawn) [Compound 155, 5-((3,4-dichlorobenzyl)amino)-1-(pyrrolidin-3-ylmethyl)-1H-pyrazolo[4,3-d]pyrimidin-7(6H)-one hydrochloride] | 64 µg/mL | 32 µg/mL | 64 µg/mL | 32 µg/mL | 8 µg/mL | 4 µg/mL | > 64 µg/mL | >64 µg/mL |  |  |  |  |  |  | 
7 | Cl.O=c1[nH]c(NCc2ccc(Cl)c(Cl)c2)nc2cnn(C3CCN(S(=O)(=O)c4cccnc4)CC3)c12 [Compound 156, 5-((3,4-dichlorobenzyl)amino)-1-(1-(pyridin-3-ylsulfonyl)piperidin-4-yl)-1H-pyrazolo[4,3-d]pyrimidin-7(6H)-one hydrochloride] | 2 µg/mL | 2 µg/mL | > 64 µg/mL | 1 µg/mL | 4 µg/mL | 1 µg/mL | > 64 µg/mL | >64 µg/mL |  |  |  |  |  |  | 
8 | COCCN1CCC(n2ncc3nc(NCc4ccc(Cl)c(Cl)c4)[nH]c(=O)c32)CC1.Cl [Compound 157, 5-((3,4-dichlorobenzyl)amino)-1-(1-(2-methoxyethyl)piperidin-4-yl)-1H-pyrazolo[4,3-d]pyrimidin-7(6H)-one hydrochloride] | 4 µg/mL | 8 µg/mL | 8 µg/mL | 2 µg/mL | 4 µg/mL | 2 µg/mL | > 64 µg/mL | 64 µg/mL |  |  |  |  |  |  | 
9 | O=C(Cn1ncc2nc(NCc3ccc(Cl)c(Cl)c3)[nH]c(=O)c21)N1CCOCC1 [Compound 158, 5-((3,4-dichlorobenzyl)amino)-1-(2-morpholino-2-oxoethyl)-1H-pyrazolo[4,3-d]pyrimidin-7(6H)-one] | 32 µg/mL (≈ 73.2 µM) | 16 µg/mL (≈ 36.6 µM) | 16 µg/mL (≈ 36.6 µM) | 8 µg/mL (≈ 18.3 µM) | 4 µg/mL (≈ 9.15 µM) | 8 µg/mL (≈ 18.3 µM) | > 64 µg/mL | >64 µg/mL |  |  |  |  |  |  | 
10 | CN1CC(Cn2ncc3nc(NCc4ccc(Cl)c(Cl)c4)[nH]c(=O)c32)CC1=O (stereo not drawn) [Compound 159, 5-((3,4-dichlorobenzyl)amino)-1-((1-methyl-5-oxopyrrolidin-3-yl)methyl)-1H-pyrazolo[4,3-d]pyrimidin-7(6H)-one] | 8 µg/mL (≈ 19 µM) | 8 µg/mL (≈ 19 µM) | 8 µg/mL (≈ 19 µM) | 2 µg/mL (≈ 4.75 µM) | 2 µg/mL (≈ 4.75 µM) | 2 µg/mL (≈ 4.75 µM) | > 64 µg/mL | >64 µg/mL |  |  |  |  |  |  | 
11 | Cl.O=c1[nH]c(NCc2ccc(Cl)c(Cl)c2)nc2cnn(CCOCCN3CCOCC3)c12 [Compound 160, 5-((3,4-dichlorobenzyl)amino)-1-(2-(2-morpholinoethoxy)ethyl)-1H-pyrazolo[4,3-d]pyrimidin-7(6H)-one hydrochloride] | 16 µg/mL | 16 µg/mL | 16 µg/mL | 8 µg/mL | 4 µg/mL | 4 µg/mL | > 64 µg/mL | 64 µg/mL |  |  |  |  |  |  | 
12 | Cl.Cl.O=c1[nH]c(NCc2ccc(Cl)c(Cl)c2)nc2cnn(C3CCN(c4ccccn4)CC3)c12 [Compound 161, 5-((3,4-dichlorobenzyl)amino)-1-(1-(pyridin-2-yl)piperidin-4-yl)-1H-pyrazolo[4,3-d]pyrimidin-7(6H)-one dihydrochloride] | 4 µg/mL | 8 µg/mL | > 64 µg/mL | 2 µg/mL | 16 µg/mL | 2 µg/mL | > 64 µg/mL | >64 µg/mL |  |  |  |  |  |  | 
13 | O=c1[nH]c(NCc2ccc(Cl)c(Cl)c2)nc2cnn(C3CCN(c4ccncc4)CC3)c12 [Compound 162, 5-((3,4-dichlorobenzyl)amino)-1-(1-(pyridin-4-yl)piperidin-4-yl)-1H-pyrazolo[4,3-d]pyrimidin-7(6H)-one dihydrochloride] |  |  |  |  |  |  |  | 8 µg/mL | 2/4 | 4 µg/mL | 4 µg/mL | 2/2 | 2 µg/mL | 1 µg/mL | > 64 µg/mL
14 | O=c1[nH]c(NCc2ccc(Cl)c(Cl)c2)nc2cnn(C3CCN(c4cccnc4)CC3)c12 [Compound 163, 5-((3,4-dichlorobenzyl)amino)-1-(1-(pyridin-3-yl)piperidin-4-yl)-1H-pyrazolo[4,3-d]pyrimidin-7(6H)-one dihydrochloride] |  |  |  |  |  |  |  | >64 µg/mL | 2/2 | 2 µg/mL | > 64 µg/mL | 2/2 | 8 µg/mL | 0.5 µg/mL | > 64 µg/mL
